Test results reported in patent US12616750B2, “Combination therapy utilizing DNA alkylating agents and ATR inhibitors” (Merck Patent GmbH, priority 2018, dated 2026).
Where two headings read alike, the source gives them in different places.

Columns and labels:
Assay type in all cases: cell-based
HCC-1954 cells [1] = assay: Cytotoxicity (cell viability, CellTiter-Glo, 6 d); conditions: Homo sapiens
Protocol: (§1) Dose-matrix combination assays were performed as described above, but performed in opague 384-well plates (2k viable cells/well). Compounds were added using Tecan D300e liquid. Protein solutions were supplemented with 0.3% Tween-20 (final) and diluted to 1 μM. All wells were normalized to the maximum amount of DMSO (maximum 0.4%) or Tween-20 added. […] Luminescence values were normalized to luminescence of non-treated cells and dose-response was fitted using Smart Fit. Synergy scores were calculated using LOEWE synergy model.
After 6 d of treatment, CellTiter-Glo luminescent assay was performed and the luminescence was read on Envision Reader. The results were analyzed using GeneData Screener as described before.

MDA-MB-468 cells [2] = assay: Cytotoxicity (cell viability, CellTiter-Glo, 6 d)
MDA-MB-453 cells [3] = assay: Cytotoxicity (cell viability, CellTiter-Glo, 6 d)
Protocol: as §1

NCI-N87 cells [4] = assay: Cytotoxicity (cell viability, CellTiter-Glo, 6 d); conditions: Homo sapiens; NCI-N87, agent alone, 384-well format (footnote a)
Protocol: as §1

JIMT-1 cells = assay: Cytotoxicity (cell viability, CellTiter-Glo, 6 d); conditions: JIMT-1, agent alone, 384-well format (footnote a)
Protocol: Evaluation was performed using GraphPad Prism version 6.05.
(§2) Dose-matrix combination assays were performed as described above, but performed in opague 384-well plates (2k viable cells/well). Compounds were added using Tecan D300e liquid. Protein solutions were supplemented with 0.3% Tween-20 (final) and diluted to 1 μM. All wells were normalized to the maximum amount of DMSO (maximum 0.4%) or Tween-20 added. Read out of luminescence was performed on Envision 2104 Multilabel Reader (Perkin Elmer) and data were evaluated using Genedata Screener® version 14.0.6-Standard (Genedata AG). Luminescence values were normalized to luminescence of non-treated cells and dose-response was fitted using Smart Fit. Synergy scores were calculated using LOEWE synergy model.

HCC-1954 cells [5] = assay: Dose-matrix combination assay (synergy score, Loewe model); conditions: combination with AZD6738, HCC-1954, 6 d
Protocol: as §1
(§3) The screening of synergistic drug combinations can be accomplished by performing a dose-matrix assay. Therefore, two drugs are serial diluted and mixed at every dose level, yielding a dose-matrix. The drug combination can be additive if the effects of the combination are identical to the added effects of the single agents. However, the effects of the combination might also be stronger than the activity of the single agents. This scenario is termed synergy, whereas weaker combination effects compared to the single agents are termed antagonism. A dose-matrix assay is depicted schematically in FIG. 2 which illustrates the outcomes of a dose-matrix assay: additivity, antagonism and synergy.
(§4) The screening was conducted by serial diluting the duocarmycin derivative DUBA (10) and the DDR inhibitors. […] DUBA was combined in a dose-matrix assay with hycanthone. The cell viability was measured after 6 d of treatment using the CellTiter-Glo assay kit. The signals of the cell viability assay were normalized to untreated cells and fitted. […] By subtracting the modeled data from the fitted data, an excess matrix was generated. The excess matrix can be considered as a visualization of the differences between model and actual data which also highlights spots of either high synergy or antagonism. The quantification of the combination effects, however, was performed by calculating synergy scores. […] Besides synergy score, the potency of the drugs in monotherapy was obtained from these experiments. […] The potency was obtained from this dose-response curve.
(§5) The scattering of S was determined in a sham control experiment to define a cutoff for classifying a combination as truly synergistic or antagonistic. Thus seven different compounds were combined with itself on four different cell lines and the three-σ confidence interval was calculated around the mean of the measurement. […] For the sake of convenience, the cutoff was set to a value of ±1.
(§6) Synergy scores (S) were obtained from the combination experiments that indicated additivity […] if model and actual response were equal. […] The magnitude of the score determined the extent of the combination effects.

MDA-MB-453 cells [6] = assay: as above; conditions: combination with AZD6738; MDA-MB-453
Protocol: as §2, §3

NCI-N87 cells [7] = assay: as above; conditions: combination with AZD6738; NCI-N87
Protocol: as §2, §3

[8] = system: HCC-1954 cells treated with ATR, CHK1 or non-targeting siRNA; assay: Cytotoxicity of duocarmycins on siRNA knock-down cells; conditions: 6 d
Protocol: 0.7*10^6 viable cells were seeded in a T25 flask, 5 mL of medium were added and the cells were incubated at 37° C. and 5% C02 overnight. The transfection was carried out as follows: 2.5 μL Lipofectamine RNAiMAX were diluted with 247.5 μL OptiMEM and a 0.3 μM siRNA (ATR, CHK1 or non-targeting siRNA) solution was prepared in OptiMEM to yield 250 μL final volume. The solutions were mixed and incubated for 20 min at room temperature, followed by the addition of 500 μL cell culture medium. The cell culture medium was removed from the cells, washed with PBS (3×) and the transfection mix was added to the cells. After 4 h incubation at 37° C. and 5% CO2, the transfection mix was removed in vacuo. The cells were washed with medium (3×), 5 mL medium were added and the cells were incubated for 60 h at 37° C. and 5% CO2. Then cells were detached, and seeded into 384-well plates. Then a cytotoxicity assay was performed as described before, but with one compound only
Therefore, HCC-1954 cells were seeded into T25 flasks and left to adhere overnight. Then the cells were washed with PBS, and subsequently ATR, CHK1 and non-targeting siRNA were added. The cells were incubated for 4 h, washed with medium and incubated for 3 d. Cells were detached and seeded into 384-well plates. They were treated with duocarmycins for 6 d. Cell viability was determined via CellTiter-Glo assay kit, and data were evaluated using GraphPad Prism. The knock-down efficiency was evaluated using quantitative PCR.

A431 cells = assay: Cytotoxicity (cell viability); conditions: A431 (EGFR ++, MET +), Table 10
Protocol: (§7) Curve-shift assays were conducted as follows: The cell number and viability was determined using ViCell™-XR (Beckman Coulter) and seeded in opague 96-well plate (10k viable cells/well). After seeding, the plate was incubated (37° C., 5% C02) in a humid chamber overnight. Compounds were diluted in the appropriate medium, added to the cells and the plate was incubated (37° C., 5% CO2, 6 d) in a humid chamber. After 30 min equilibration at room temperature, CellTiter-Glo reagent (Promega) was added. After the plate was shaken (3 min, 550 rpm, rt) it was incubated (10 min, rt) and luminescence was read on a synergy 4 plate reader (BioTek). Evaluation was performed using GraphPad Prism version 6.05. Therefor luminescence values were normalized to luminescence values of non-treated cells and dose-response was fitted with 4-point logistic fit.
as §2

A549 cells [9] = assay: Cytotoxicity (cell viability); conditions: A549 (EGFR +, MET +), Table 10
Protocol: as §7, §2

MCF7 cells = assay: Cytotoxicity (cell viability); conditions: MCF7 (EGFR −, MET −), Table 10
Protocol: as §7, §2

MDA-MB-468 cells [10] = assay: Dose-matrix combination assay (synergy score, Loewe model); conditions: combination with AZD6738; MDA-MB-468 (EGFR-positive), 6 d
Protocol: as §1, §3, §4, §5, §6

A549 cells [11] = assay: as above; conditions: combination with AZD6738; A549 (EGFR-positive), 6 d
Protocol: as §2, §3

Cc1cccc2c(O)cc3c(c12)[C@H](CCl)CN3C(=O)c1cn2cc(NC(=O)c3ccc(O)cc3)ccc2n1 [compound 10]
IC50 (HCC-1954 cells [1]; HCC1954, HCC-1954, agent alone, 384-well format (footnote a)): 0.3 ± 0.07 nM | IC50 (HCC-1954 cells [1]; HCC1954, duocarmycin variant alone, HCC-1954, mean ± SD or mean (individual values)): 0.2 ± 0.1 nM | IC50 (MDA-MB-468 cells [2]; Homo sapiens, MDA-MB-468): 0.06 ± 0.02 nM | IC50 (MDA-MB-453 cells [3]; Homo sapiens, MDA-MB-453): 0.3 ± 0.1 nM | IC50 (NCI-N87 cells [4]): 1.2 ± 0.5 nM | IC50 (JIMT-1 cells; Homo sapiens): 3 ± 2 nM | Synergy score S (HCC-1954 cells [5]): 6.7 (6.3, 7.2) 6.9 ± 0.7 | Synergy score S (HCC-1954 cells [5]; listed as DUBA): 6.9±0.7 | Synergy score S (HCC-1954 cells [5]; listed as DUBA (10)): 6.9±0.7 | Synergy score S (MDA-MB-453 cells [6]): 5.0±0.5 | Synergy score S (NCI-N87 cells [7]): 3.1+0.6 | IC50 ([8]; Homo sapiens, HCC1954, 144 h, ATR knock-down HCC-1954 cells): 0.25 nM

CN(C)CCOc1ccc2[nH]c(C(=O)N3C[C@@H](CCl)c4c3cc(O)c3ccccc43)cc2c1 [compound 38]
IC50 (MDA-MB-468 cells [2]; MDA-MB-468 (EGFR +++, MET +), Table 10, read-out: IC50): 0.02 ± 0.01 nM | IC50 (MDA-MB-468 cells [2]; MDA-MB-468, agent alone, 384-well format (footnote a), read-out: IC50): 0.02 ± 0.01 nM | IC50 (MDA-MB-453 cells [3]; MDA-MB-453, agent alone, 384-well format (footnote a), read-out: IC50): 0.14 nM | IC50 (JIMT-1 cells): 0.14 nM | IC50 (A431 cells): 0.055 ± 0.005 nM | IC50 (A549 cells [9]): 0.1 ± 0.1 nM | IC50 (MCF7 cells): 0.164 ± 0.004 nM | Synergy score S (HCC-1954 cells [5]): 5.6 ± 1.7 5.1 (4.8, 5.3) | Synergy score S (HCC-1954 cells [5]; listed as DDM): 5.6+1.7 | Synergy score S (HCC-1954 cells [5]; listed as DDM (38)): 5.6±1.7 | Synergy score S (MDA-MB-468 cells [10]): 6.0±1.0 | Synergy score S (A549 cells [11]): 2.0±1.1 | IC50 ([8]; ATR knock-down HCC-1954 cells): 0.014 nM | IC50 ([8]; CHK1 knock-down HCC-1954 cells): 0.133 nM
